The target of one data set is T1, NMDA receptors (Rattus norvegicus, UniProt P35439).
T1 construct: Single dorsal horn neurons were isolated from the lamina I and II of the lumbar spinal cord; endogenous in cells; host or cells: acutely dissociated rat lumbar dorsal horn neurons (lamina I/II): control Long-Evans rats or CFA-inflamed Sprague-Dawley rats
The data set is described as follows: NMDA-evoked currents in isolated dorsal horn neurons of control rats, whole-cell patch clamp, with or without PKCM in the pipette. Type of data set: cell-based.

Data set [1] has as its system system L-amino acid transporter. Particulars: cited from earlier work.
The test system of another data set is GABAA receptors. Particulars: cited from earlier work.
For data set [2] the following is noted: rabbits; cited from earlier work.
The conditions of data set [3]: rodents; cited from earlier work.
Data set [4] concerns formalin-induced nociceptive responses. Particulars: formalin test, cited from earlier work.
The target in another data set is GABAB receptors (Homo sapiens, UniProt Q9UBS5). Particulars: cited from earlier work.
The subject of data set [5] is N and P/Q subtypes of Ca^2+ channel. Particulars: cited from earlier work.

Sequence of GABAB receptors (Q9UBS5 15-961 limits assumed): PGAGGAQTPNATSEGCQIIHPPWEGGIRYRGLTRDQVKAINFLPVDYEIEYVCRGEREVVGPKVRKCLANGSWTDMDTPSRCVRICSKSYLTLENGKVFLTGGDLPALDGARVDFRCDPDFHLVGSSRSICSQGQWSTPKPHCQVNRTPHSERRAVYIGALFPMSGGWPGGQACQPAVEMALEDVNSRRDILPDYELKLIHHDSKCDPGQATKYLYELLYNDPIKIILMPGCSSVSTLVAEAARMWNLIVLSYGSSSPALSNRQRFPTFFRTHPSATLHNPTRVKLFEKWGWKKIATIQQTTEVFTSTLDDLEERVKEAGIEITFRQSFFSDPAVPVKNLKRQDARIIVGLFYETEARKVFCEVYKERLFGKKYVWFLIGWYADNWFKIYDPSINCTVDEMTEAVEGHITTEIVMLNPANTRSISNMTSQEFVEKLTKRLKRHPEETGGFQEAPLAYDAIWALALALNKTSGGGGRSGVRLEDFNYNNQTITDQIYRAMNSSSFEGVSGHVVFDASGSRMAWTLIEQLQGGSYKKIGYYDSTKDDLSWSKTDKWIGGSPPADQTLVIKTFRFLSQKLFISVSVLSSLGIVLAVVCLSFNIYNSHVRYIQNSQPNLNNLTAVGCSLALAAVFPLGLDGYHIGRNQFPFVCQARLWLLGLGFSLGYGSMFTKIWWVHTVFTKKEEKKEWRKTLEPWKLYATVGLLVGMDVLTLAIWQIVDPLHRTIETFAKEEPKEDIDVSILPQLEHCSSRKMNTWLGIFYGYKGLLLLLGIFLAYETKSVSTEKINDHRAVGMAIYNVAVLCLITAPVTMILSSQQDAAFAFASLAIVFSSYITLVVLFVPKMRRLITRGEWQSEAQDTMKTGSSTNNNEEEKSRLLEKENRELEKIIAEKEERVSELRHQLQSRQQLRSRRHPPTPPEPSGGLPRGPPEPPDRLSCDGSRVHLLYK
Sequence of GABAB receptors (O75899 42-941 partner): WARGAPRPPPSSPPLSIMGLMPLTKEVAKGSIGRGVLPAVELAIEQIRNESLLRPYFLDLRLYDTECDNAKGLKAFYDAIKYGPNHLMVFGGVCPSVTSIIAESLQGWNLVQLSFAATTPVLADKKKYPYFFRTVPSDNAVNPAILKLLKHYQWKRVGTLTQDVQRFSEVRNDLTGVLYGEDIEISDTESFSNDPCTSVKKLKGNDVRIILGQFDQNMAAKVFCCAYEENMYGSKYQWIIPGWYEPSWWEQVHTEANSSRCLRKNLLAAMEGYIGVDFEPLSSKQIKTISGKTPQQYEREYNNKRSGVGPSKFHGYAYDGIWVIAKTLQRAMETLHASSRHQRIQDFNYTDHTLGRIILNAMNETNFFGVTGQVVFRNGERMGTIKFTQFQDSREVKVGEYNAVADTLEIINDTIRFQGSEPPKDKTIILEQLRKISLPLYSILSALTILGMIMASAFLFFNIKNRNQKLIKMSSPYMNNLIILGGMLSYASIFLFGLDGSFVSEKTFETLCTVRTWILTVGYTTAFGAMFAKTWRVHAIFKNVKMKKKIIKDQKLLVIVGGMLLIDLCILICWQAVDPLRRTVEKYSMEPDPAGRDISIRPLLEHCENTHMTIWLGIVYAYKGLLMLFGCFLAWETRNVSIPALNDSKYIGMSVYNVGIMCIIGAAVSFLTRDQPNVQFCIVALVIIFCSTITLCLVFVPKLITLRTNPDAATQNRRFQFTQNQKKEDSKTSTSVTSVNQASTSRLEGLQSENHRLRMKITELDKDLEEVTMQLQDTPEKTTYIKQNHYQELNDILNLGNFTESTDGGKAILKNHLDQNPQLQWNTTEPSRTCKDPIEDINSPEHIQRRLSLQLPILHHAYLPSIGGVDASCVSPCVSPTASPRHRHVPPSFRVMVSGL
Protocol for NMDA receptors: Single dorsal horn neurons were isolated from the lamina I and II of the lumbar spinal cord of 13-20 days old Long-Evans rats. After the rat had been anaesthetized with pentobarbitone (0.1 mg/g), the lumbar region of the spinal cord was rapidly removed from the animal and put into an ice-cold, oxygenated dissecting solution. […] Prior to an experiment, neurons from a slice were dissociated by triturating the tissue with a series of fire-polished Pasteur pipettes.
Electrical recordings: NMDA-receptor mediated currents in normal dorsal horn neurons were examined using the whole-cell patch clamp recording technique at room temperature (20-23° C.). The pipette solution contained (in mM): 120 cesium methanesulphonate, 20 CsCl, 1 CaCl2, 5 BAPTA, 1 MgCl2, 10 HEPES, 2.5 Na2ATP, adjusted to pH 7.2 with CsOH. The external solution contained (mM): NaCl,140; KCl, 4; CaCI2, 2.5; MgCl2, 0.02; HEPES,10; Glucose,10; Sucrose,10; adjusted to pH 7.4 with KOH. […] The resistances of patch pipettes were <20 Mohms. Current recordings were made with an Axopatch-200A patch clamp amplifier (Axon Instruments, Foster City, Calif.). The recorded whole-cell currents were filtered at 2 kHz and sampled at 200 μs per point. The average data are expressed as mean±SEM. Statistical significance of the data was evaluated using Student's t-test or one-way ANOVA. A level of P<0.05 was considered statistically significant.

As to `NC(CCCP(=O)(O)O)C(=O)O` (stereo not shown) [APV, 2-amino-5-phosphonovaleric acid], the “block of NMDA-evoked inward current” value at NMDA receptors (20 μM APV, control dorsal horn neuron) is “blocked”.
As to `NCC1(CC(=O)O)CCCCC1` [GBP, 1-(aminomethyl)cyclohexaneacetic acid], the “interaction with system L-amino acid transporter” value in data set [1] is on record as “interact”. The “interaction with GABAA receptors” value in the data set with GABAA receptors is on record as “does not interact”. For the same molecule, in data set [2], the fetal loss result is reported as “postimplantation fetal loss”. Further, the fetotoxicity entry in data set [3] is “fetotoxic”. The “nociceptive behaviors in the transient phase” value in data set [4] (first phase) is recorded as “no effect”. Also, the “sustained phase of formalin-induced nociceptive responses” value in data set [4] (second phase) is listed as “potently blocking”. Further, the “interaction with GABAB receptors” value at GABAB receptors was “does not interact”. Moreover, the “inhibition of Ca^2+ channel activity” value in data set [5] was less than 20%.
As to `COc1ccc2c(c[n+](C)c3c4cc5c(cc4ccc23)OCO5)c1OC` [chelerythrine], the “block of the action of PKCM on NMDA-activated currents” value on NMDA receptors (6.6 μM chelerythrine in external solution) is given as “completely blocked”.

Values taken from US20020049160A1, “New strategy for drug design” (priority 2000, published 2002).
